From patent publication US20100143500A1, “Methods and Compositions for Inhibiting GSK-3 In Glial Cell Related Disorders” (THE OHIO STATE UNIVERSITY RESEARCH FOUNDATION, priority 2006, published 2010)

Tests used:
[1] = test system: U87 glioma cell spheroids; experiment: U87 glioma spheroid invasion in collagen I matrix
Method: U87 control spheroid after 96 hours expansion in type I collagen with 20 mM NaCl.
Time course of U87 spheroid invasion, in the presence of increasing concentrations of LiCl. Measurements were taken daily over a period of four days.
Time course of spheroid expansion with 20 mM LiCl washed out from U87 spheres at 24 hour intervals. Subsequent expansion was monitored microscopically.
To investigate the role of GSK-3 in glioma invasion, experiments were carried out to examine the effects of lithium chloride (LiCl), a known inhibitor of GSK-3, on the invasion of U87 glioma cell spheroids embedded in a collagen I matrix.

[2] = test system: three additional glioma cell lines and two human glioblastoma biopsies (X12 and X14)
Method: Spheroids from 6 glioma cell lines were grown in the presence of LiCl (10 mM or 20 mM).
Cell lines and chemicals. The U87 and U87ΔEGFR cell lines were provided by Dr. Webster Cavenee (Ludwig Institute for Cancer Research, La Jolla, Calif.). The human glioblastoma biopsies, X12 and X14 (from Dr. C. David James, Mayo Clinic, Rochester, Minn.), were maintained as flank tumors in nude mice as described (5). All cells were grown in DMEM with 10% FBS and 1% penicillin-streptomycin.

glioma cells = experiment: propidium iodide exclusion and metabolic cell viability assays; format: cell-based; details: under conditions that block cell motility
[3] = biological target: T1, inositol monophosphatase (IMP) (Homo sapiens, UniProt P29218); details: cited from earlier work
T1 sequence (P29218 1-277): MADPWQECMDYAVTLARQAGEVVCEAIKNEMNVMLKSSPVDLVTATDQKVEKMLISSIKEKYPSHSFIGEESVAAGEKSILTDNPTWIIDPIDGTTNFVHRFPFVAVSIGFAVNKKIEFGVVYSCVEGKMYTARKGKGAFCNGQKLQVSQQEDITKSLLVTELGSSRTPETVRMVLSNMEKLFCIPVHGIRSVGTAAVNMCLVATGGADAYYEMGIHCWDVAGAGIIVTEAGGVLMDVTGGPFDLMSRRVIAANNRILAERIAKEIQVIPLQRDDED

| SMILES | spheroid expansion as a percentage of control spheres ([1]; U87 cells, 96 hours) | invasion of glioma spheroids ([1]; U87 spheroids embedded in collagen I matrix) | reversibility of the invasion blockade ([1]; after removal of inhibitor, assay up to 96 hours) | spheroid expansion as a percentage of control spheres ([2]; X12 cells, 96 hours) | spheroid invasion in further glioma cell lines and biopsies ([2]; panel of glioma cell lines, X12 and X14) | cytotoxicity (glioma cells) | effect on invasion ([1]; concentrations as high as 400 μM) | potency as IMP inhibitor relative to lithium [3] [fold] |
| --- | --- | --- | --- | --- | --- | --- | --- | --- |
| COc1ccc(CNC(=O)Nc2ncc([N+](=O)[O-])s2)cc1 [AR-A014418] | dose dependent decrease in spheroid expansion | dose-dependent blockade of invasion | reversible | dose dependent decrease in spheroid expansion | observed in the full panel of cell lines | Minimal cytotoxicity | – | – |
| CC(Oc1ccc(O)cc1)(P(=O)(O)O)P(=O)(O)O [L-690, 330] | – | – | – | – | – | – | no effect on invasion | 1000 |
| O=C1NC(=O)C(c2ccccc2[N+](=O)[O-])=C1Nc1ccc(O)c(Cl)c1 [SB415286] | – | – | – | – | – | Minimal cytotoxicity | – | – |
